Here are results for 62 molecules from patent publication US10538532B2, “Hepatitis B antiviral agents” (ENANTA PHARMACEUTICALS, INC., priority 2016, dated 2020).

A value given as a limit tells only on which side of the number the result lay.

The assay concerns HBV. The assay can be described thus: HepAD38 antiviral assay: reduction of viral product accumulation (virion DNA by qPCR, HBsAg or HBeAg by ELISA). In kind it is cell-based, hepatitis B virus. The conditions noted are these: Hepatitis B virus, HePAD38, 120 h, HepAD38 cells, five days after compound addition; concentration reducing viral product accumulation by 50% relative to no drug controls; read-out: HepAD38 EC50. How it is done: Methods: HepAD38 cells are maintained as previously reported (Ladner et al, Antimicrob. Agents Chemother. 1997, […], 1715). Briefly, cells are passaged upon attaining confluency in DMEM/F12 media in the presence of 10% FBS, Penn/Strep, 250 μg/mL G418, and 1 ug/ml tetracycline. Novel compounds are screened by first washing cells three times with PBS to remove tetracycline, and plating in 96 well plates at 35,000 cells/well. Compounds dissolved in DMSO are then diluted 1:200 into wells containing cells. Five days after compound addition, material is harvested for analysis. For an extended 8 day analysis, cells are plated and treated as described above, but media and compound are refreshed on d2 and d5 post initial treatment.
On harvest day, virion DNA is obtained by lysing with Sidestep Lysis and Stabilization Buffer and then quantified via quantitative real time PCR. Commercially available ELISA kits are used to quantitate the viral proteins HBsAg (Alpco) or HbeAg (US Biological) by following the manufacturer's recommended protocol after diluting samples to match the linear range of their respective assays. Irrespective of readout, compound concentrations that reduce viral product accumulation in the cell lysates or supernatants by 50% relative to no drug controls (EC50) are reported; EC50 ranges are as follows: A<0.1 μM; B 0.1-0.4 μM; C>0.4 μM.
Background: Quantitative PCR measures a nucleic acid by following its amplification.

Consider `O=C(Nc1cc(F)c(F)c(F)c1)c1ccc(Cl)c(S(=O)(=O)[C@@H]2CCC[C@H](O)C2)c1` (racemic) [Example 58], for which the EC50 was above 0.4 µM.

Turning to `O=C(Nc1cc(F)c(F)c(F)c1)c1ccc(Cl)c(S(=O)(=O)C2CCC3(CC2)OCCO3)c1` [Example 1], the EC50 was in the range of 0.1 to 0.4 µM.

`O=C1CCC(S(=O)(=O)c2cc(C(=O)Nc3cc(F)c(F)c(F)c3)ccc2Cl)CC1` [Example 2]: the EC50 was in the range of 0.1 to 0.4 µM. With `C[C@H](NC(=O)OC(C)(C)C)C(=O)O[C@H]1CC[C@H](S(=O)(=O)c2cc(C(=O)Nc3cc(F)c(F)c(F)c3)ccc2Cl)CC1` [Example 5] the figure was 0.1 to 0.4 µM; with `C[C@H](N)C(=O)O[C@H]1CC[C@H](S(=O)(=O)c2cc(C(=O)Nc3cc(F)c(F)c(F)c3)ccc2Cl)CC1` [Example 6], 0.1 to 0.4 µM; with `O=C(Nc1cc(F)c(F)c(F)c1)c1ccc(Cl)c(S[C@H]2CC[C@H](O)CC2)c1` [Example 10], 0.1 to 0.4 µM. The figure for `O=C(Nc1cc(F)c(F)c(F)c1)c1ccc(Cl)c(SC2CCCCC2)c1` [Example 11] is above 0.4 µM.

Regarding `O=C(Nc1cc(F)c(F)c(F)c1)c1ccc(Cl)c(S(=O)(=O)C2CCCCC2)c1` [Example 12], the EC50 fell in the range of 0.1 to 0.4 µM. Regarding `CCCSc1cc(C(=O)Nc2cc(F)c(F)c(F)c2)ccc1Cl` [Example 13], the EC50 is above 0.4 µM. With `COc1cc(C(=O)Nc2cc(F)c(F)c(F)c2)ccc1Cl` [Example 14] the figure was above 0.4 µM; with `CCCS(=O)(=O)c1cc(C(=O)Nc2cc(F)c(F)c(F)c2)ccc1Cl` [Example 15], 0.1 to 0.4 µM.

Regarding `Cc1c(NC(=O)c2ccc(Cl)c(S(=O)(=O)[C@]3(C)CC[C@H](O)CC3)c2)cc(F)c(F)c1F` [Example 18], the EC50 fell in the range of 0.1 to 0.4 µM. The figure for `Cc1c(NC(=O)c2ccc(Cl)c(S(=O)(=O)[C@]3(C)CC[C@@H](O)CC3)c2)cc(F)c(F)c1F` [Example 19] is above 0.4 µM. The figure for `O=C(Nc1cc(F)c(F)c(F)c1)c1ccc(Cl)c(S(=O)(=O)C2CC=CCC2)c1` (centres unmarked) [Example 20] is 0.1 to 0.4 µM. With `O=C(Nc1cc(F)c(F)c(F)c1)c1ccc(Cl)c(S(=O)(=O)[C@H]2CC[C@H](F)CC2)c1` [Example 21] the figure was 0.1 to 0.4 µM. Consider `C[C@]1(O)CC[C@@H](S(=O)(=O)c2cc(C(=O)Nc3cc(F)c(F)c(F)c3)ccc2Cl)CC1` [Example 22], for which the EC50 was in the range of 0.1 to 0.4 µM. With `C[C@]1(O)CC[C@H](S(=O)(=O)c2cc(C(=O)Nc3cc(F)c(F)c(F)c3)ccc2Cl)CC1` [Example 23] the figure was 0.1 to 0.4 µM; with `O=C(Nc1ccnc(Cl)c1)c1ccc(Cl)c(S(=O)(=O)[C@H]2CC[C@H](O)CC2)c1` [Example 24], above 0.4 µM.

As to `O=C(Nc1cc(F)c(F)c(F)c1)c1ccc(Cl)c(O[C@H]2CC[C@H](O)CC2)c1` [Example 25], the EC50 was above 0.4 µM. As to `COc1cc(NC(=O)c2ccc(Cl)c(S(=O)(=O)[C@H]3CC[C@H](O)CC3)c2)ccc1F` [Example 26], the EC50 is above 0.4 µM.

For the molecule `O=C(Nc1cc(F)c(F)c(F)c1)c1ccc(Cl)c(S(=O)(=O)Cc2ccccc2)c1` [Example 27], the EC50 is above 0.4 µM. With `O=C(Nc1cc(F)c(F)c(F)c1)c1ccc(Cl)c(SCC2CCCCC2)c1` [Example 28] the figure was above 0.4 µM; with `O=C1CCCC(S(=O)(=O)c2cc(C(=O)Nc3cc(F)c(F)c(F)c3)ccc2Cl)C1` (centres unmarked) [Example 29], above 0.4 µM; with `O=C1CCCC(S(=O)(=O)c2cc(C(=O)Nc3cc(F)c(F)c(F)c3)ccc2Cl)CO1` (centres unmarked) [Example 30], above 0.4 µM. The figure for `O=C(Nc1cc(F)c(F)c(F)c1)c1ccc(Cl)c(S(=O)(=O)[C@@H]2CC[C@H](O)C2)c1` [Example 31] is 0.1 to 0.4 µM; for `O=C(Nc1cc(F)c(F)c(F)c1)c1ccc(Cl)c(SCc2ccccn2)c1` [Example 32] it is above 0.4 µM; for `O=C1CC(S(=O)(=O)c2cc(C(=O)Nc3cc(F)c(F)c(F)c3)ccc2Cl)C1` [Example 33] it is above 0.4 µM. With `O=C(Nc1cc(F)c(F)c(F)c1)c1ccc(Cl)c(S(=O)(=O)[C@H]2C[C@@H](O)C2)c1` [Example 34] the figure was above 0.4 µM. In the case of `O=C(Nc1cc(F)c(F)c(F)c1)c1ccc(Cl)c(SCc2cccnc2)c1` [Example 35], the EC50 is above 0.4 µM. With `O=C(Nc1cc(F)c(F)c(F)c1)c1ccc(Cl)c(S(=O)(=O)CC2CCCCC2)c1` [Example 36], the EC50 was above 0.4 µM.

With `O=C(Nc1cc(F)c(F)c(F)c1)c1ccc(Cl)c(S(=O)(=O)Cc2cccc[n+]2[O-])c1` [Example 37], the EC50 is above 0.4 µM. Turning to `O=C(Nc1cc(F)c(F)c(F)c1)c1ccc(Cl)c(SCc2ccncc2)c1` [Example 38], the EC50 is above 0.4 µM. The figure for `C=C1CC2CCC(C1)C2Sc1cc(C(=O)Nc2cc(F)c(F)c(F)c2)ccc1Cl` (centres unmarked) [Example 39] is above 0.4 µM; for `COc1cc(NC(=O)c2ccc(Cl)c(S(=O)(=O)[C@H]3CC[C@H](O)CC3)c2)ccn1` [Example 40] it is above 0.4 µM; for `N#Cc1cc(NC(=O)c2ccc(Cl)c(S(=O)(=O)[C@H]3CC[C@H](O)CC3)c2)ccc1F` [Example 41] it is above 0.4 µM. With `O=C(Nc1cc(F)c(F)cn1)c1ccc(Cl)c(S(=O)(=O)[C@H]2CC[C@H](O)CC2)c1` [Example 43] the figure was above 0.4 µM; with `O=C(Nc1cc(F)c(F)c(F)c1)c1ccc(Cl)c(S(=O)(=O)[C@H]2C3CCC2C[C@@H](O)C3)c1` [Example 44], 0.1 to 0.4 µM. For `O=C(Nc1cc(F)c(F)c(F)c1)c1ccc(Cl)c([S+]([O-])Cc2ccncc2)c1` (centres unmarked) [Example 47], the EC50 is above 0.4 µM. The figure for `C=C1CC2CCC(C1)C2S(=O)(=O)c1cc(C(=O)Nc2cc(F)c(F)c(F)c2)ccc1Cl` (centres unmarked) [Example 49] is 0.1 to 0.4 µM. As to `O=C(Nc1ccc(F)c(F)c1)c1ccc(Cl)c(S(=O)(=O)[C@H]2CC[C@H](O)CC2)c1` [Example 51], the EC50 lay within 0.1 to 0.4 µM. With `O=C(Nc1ccc(F)c(Cl)c1)c1ccc(Cl)c(S(=O)(=O)[C@H]2CC[C@H](O)CC2)c1` [Example 52] the figure was 0.1 to 0.4 µM; with `CS(=O)(=O)NC(=O)O[C@H]1CC[C@H](S(=O)(=O)c2cc(C(=O)Nc3cc(F)c(F)c(F)c3)ccc2Cl)CC1` [Example 53], above 0.4 µM. `CC(C)(C)OC(=O)N[C@H]1CC[C@H](S(=O)(=O)c2cc(C(=O)Nc3cc(F)c(F)c(F)c3)ccc2Cl)CC1` [Example 54]: the 50% effective concentration (EC50) lay within 0.1 to 0.4 µM. With `CC(C)(C)OC(=O)N[C@H]1CC[C@H]([S+]([O-])c2cc(C(=O)Nc3cc(F)c(F)c(F)c3)ccc2Cl)CC1` (some centres unmarked) [Example 55] the figure was above 0.4 µM; with `N#Cc1cc(NC(=O)c2ccc(Cl)c(S(=O)(=O)[C@H]3CC[C@H](O)CC3)c2)ccn1` [Example 56], above 0.4 µM. The figure for `O=C1CCC(S(=O)(=O)c2cc(C(=O)Nc3cc(F)c(F)c(F)c3)ccc2Cl)C1` (centres unmarked) [Example 57] is above 0.4 µM; for `CC(C)(C)OC(=O)N1CCC(S(=O)(=O)c2cc(C(=O)Nc3cc(F)c(F)c(F)c3)ccc2Cl)CC1` [Example 59] it is below 0.1 µM. With `O=C(Nc1cc(F)c(F)c(F)c1)c1ccc(Cl)c(S[C@H]2CC[C@H](O)CC2)n1` [Example 61] the figure was above 0.4 µM; with `O=C(Nc1cc(F)c(F)c(F)c1)c1ccc(Cl)c(S(=O)(=O)[C@H]2CC[C@H](O)CC2)n1` [Example 62], above 0.4 µM. Regarding `O=C(Nc1cc(F)c(F)c(F)c1)c1ccc(Cl)c(SC2CCC=CCC2)c1` [Example 63], the EC50 was above 0.4 µM. The figure for `O=C(Nc1cc(F)c(F)c(F)c1)c1ccc(Cl)c([S+]([O-])C2CCC=CCC2)c1` (centres unmarked) [Example 64] is above 0.4 µM; for `O=C(Nc1cccc(F)c1)c1ccc(Cl)c(S(=O)(=O)[C@H]2CC[C@H](O)CC2)c1` [Example 65] it is above 0.4 µM. With `O=C(Nc1ccc(F)cc1)c1ccc(Cl)c(S(=O)(=O)[C@H]2CC[C@H](O)CC2)c1` [Example 66] the figure was above 0.4 µM; with `O=C(Nc1cc(F)c(F)c(F)c1)c1ccc(Cl)c(SC2CCOCC2)c1` [Example 67], above 0.4 µM.

For `O=C(Nc1cc(F)cc(F)c1)c1ccc(Cl)c(S(=O)(=O)[C@H]2CC[C@H](O)CC2)c1` [Example 68], the EC50 fell in the range of 0.1 to 0.4 µM. With `O=C(Nc1cc(F)c(F)c(F)c1)c1ccc(Cl)c(S(=O)(=O)C2CCOCC2)c1` [Example 69] the figure was 0.1 to 0.4 µM; with `O=C(Nc1cc(F)c(F)c(F)c1)c1ccc(Cl)c(S(=O)(=O)C2CC[C@H](O)[C@H](O)C2)c1` (some centres unmarked) [Example 70], 0.1 to 0.4 µM; with `O=C(Nc1cc(F)c(F)c(F)c1)c1ccc(Cl)c(Sc2ccccc2)c1` [Example 71], above 0.4 µM. With `N[C@H]1CC[C@H](S(=O)(=O)c2cc(C(=O)Nc3cc(F)c(F)c(F)c3)ccc2Cl)CC1` [Example 72] the figure was above 0.4 µM. The figure for `CN(C)[C@H]1CC[C@H](S(=O)(=O)c2cc(C(=O)Nc3cc(F)c(F)c(F)c3)ccc2Cl)CC1` [Example 73] is above 0.4 µM; for `O=C(Nc1cc(F)c(F)c(F)c1)c1ccc(Cl)c(S(=O)(=O)C2CCNCC2)c1` [Example 74] it is above 0.4 µM. Take `CC(C)[C@H](N)C(=O)O[C@H]1CC[C@H](S(=O)(=O)c2cc(C(=O)Nc3cc(F)c(F)c(F)c3)ccc2Cl)CC1` [Example 75]: the EC50 lay within 0.1 to 0.4 µM.

As usually defined, the EC50 is the concentration at which the effect is half-maximal.
